Target: T1, B1R receptor of the rat (CHO K1 cells stably transfected with the B1R gene of the rat) (Rattus norvegicus, UniProt P97583)
T1 construct: expressed in transfected cells; host or cells: CHO K1 cells (Chinese hamster ovary), stably transfected
T1 sequence (P97583 1-337): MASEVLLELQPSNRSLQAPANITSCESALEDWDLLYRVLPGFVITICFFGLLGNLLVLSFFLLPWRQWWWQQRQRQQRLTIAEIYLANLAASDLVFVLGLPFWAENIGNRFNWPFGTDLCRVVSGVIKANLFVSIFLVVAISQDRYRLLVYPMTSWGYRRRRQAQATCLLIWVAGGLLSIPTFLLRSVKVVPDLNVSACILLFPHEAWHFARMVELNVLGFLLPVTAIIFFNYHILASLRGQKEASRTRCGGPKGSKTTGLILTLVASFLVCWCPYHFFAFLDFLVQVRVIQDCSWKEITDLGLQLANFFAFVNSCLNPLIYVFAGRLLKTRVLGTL
Assay: Functional study on the bradykinin receptor 1 (B1R), Ca2+ fluorescence (Fluo-4) FLIPR/Novostar assay, rB1R cells
Assay type: cell-based
Conditions: CHO-K1, 10 μM, read-out: % Inhibition (r-B1R) at 10 μM
Procedure, shortened: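 Stably transfected CHO K1 cells carrying human or rat B1R were Fluo-4 loaded and Ca2+ fluorescence read by FLIPR or Novostar. Compounds were added first at 10 μM for % activation, then the EC80 agonist was applied after 6-20 min (human: Lys-Des-Arg9-bradykinin; rat: Des-Arg9-bradykinin). % inhibition is relative to maximum achievable inhibition, and IC50 comes from concentration series.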

Row | Compound | inhibition at 10 µM
1 | CN(C(=O)NC1CCCc2ccc(C(=O)N(C)C3CCN(c4ccncc4)CC3)cc21)c1ccc(Cl)cc1Cl (stereo not drawn) [CC_H-269, 8-[[(2,4-Dichlorophenyl)-methyl-carbamoyl]amino]-N-methyl-N-(1-pyridin-4-yl-piperidin-4-yl)-5,6,7,8-tetrahydro-naphthalene-2-carboxylic acid amide] | 109%
2 | CN(C(=O)c1ccc2c(c1)C(NS(=O)(=O)C1CCCCC1)CCC2)C1CCN(c2ccncc2)CC1 (stereo not drawn) [CC_H-270, 8-[(Cyclohexylsulfonyl)amino]-N-methyl-N-(1-pyridin-4-yl-piperidin-4-yl)-5,6,7,8-tetrahydro-naphthalene-2-carboxylic acid amide] | 110%
3 | CC(C)CC(=O)NC1CCCc2ccc(C(=O)N(C)C3CCN(c4ccncc4)CC3)cc21 (stereo not drawn) [CC_H-271, N-Methyl-8-(3-methyl-butanoylamino)-N-(1-pyridin-4-yl-piperidin-4-yl)-5,6,7,8-tetrahydro-naphthalene-2-carboxylic acid amide] | 109%
4 | CN(C(=O)c1ccc2c(c1)C(NC(=O)c1cc(C(F)(F)F)ccc1Cl)CCO2)C1CCN(c2ccncc2)CC1 (stereo not drawn) [CC_H-272, 4-[[2-Chloro-5-(trifluoromethyl)-benzoyl]amino]-N-methyl-N-(1-pyridin-4-yl-piperidin-4-yl)-3,4-dihydro-2H-chromene-6-carboxylic acid amide] | 112%
5 | Cc1ccc(F)c(C(=O)NC2CCOc3ccc(C(=O)N(C)C4CCN(c5ccncc5)CC4)cc32)c1Cl (stereo not drawn) [CC_H-273, 4-[(2-Chloro-6-fluoro-3-methyl-benzoyl)amino]-N-methyl-N-(1-pyridin-4-yl-piperidin-4-yl)-3,4-dihydro-2H-chromene-6-carboxylic acid amide] | 112%
6 | CN(C(=O)c1ccc2c(c1)C(NC(=O)C1CC1)CCO2)C1CCN(c2ccncc2)CC1 (stereo not drawn) [CC_H-274, 4-(Cyclopropanecarbonylamino)-N-methyl-N-(1-pyridin-4-yl-piperidin-4-yl)-3,4-dihydro-2H-chromene-6-carboxylic acid amide] | 91%
7 | CN(C(=O)c1ccc2c(c1)C(NC(=O)CC(C)(C)C)CCO2)C1CCN(c2ccncc2)CC1 (stereo not drawn) [CC_H-275, 4-(3,3-Dimethyl-butanoylamino)-N-methyl-N-(1-pyridin-4-yl-piperidin-4-yl)-3,4-dihydro-2H-chromene-6-carboxylic acid amide] | 111%
8 | COCC(=O)NC1CCOc2ccc(C(=O)N(C)C3CCN(c4ccncc4)CC3)cc21 (stereo not drawn) [CC_H-276, 4-[(2-Methoxy-acetyl]amino]-N-methyl-N-(1-pyridin-4-yl-piperidin-4-yl)-3,4-dihydro-2H-chromene-6-carboxylic acid amide] | 51%
9 | CC(=O)NC1CCOc2ccc(C(=O)N(C)C3CCN(c4ccncc4)CC3)cc21 (stereo not drawn) [CC_H-277, 4-Acetylamino-N-methyl-N-(1-pyridin-4-yl-piperidin-4-yl)-3,4-dihydro-2H-chromene-6-carboxylic acid amide] | 100%
10 | Cc1cccc(Cl)c1S(=O)(=O)NC1CCOc2ccc(C(=O)N(C)C3CCN(c4ccncc4)CC3)cc21 (stereo not drawn) [CC_H-278, 4-[[(2-Chloro-6-methyl-phenyl)sulfonyl]amino]-N-methyl-N-(1-pyridin-4-yl-piperidin-4-yl)-3,4-dihydro-2H-chromene-6-carboxylic acid amide] | 103%
11 | CN(C(=O)c1ccc2c(c1)C(NC(=O)c1cccc(C(F)(F)F)c1Cl)CCO2)C1CCN(c2ccncc2)CC1 (stereo not drawn) [CC_H-279, 4-[[2-Chloro-3-(trifluoromethyl)-benzoyl]amino]-N-methyl-N-(1-pyridin-4-yl-piperidin-4-yl)-3,4-dihydro-2H-chromene-6-carboxylic acid amide] | 111%
12 | CN(C(=O)c1ccc2c(c1)C(NC(=O)Nc1ccccc1Cl)CCO2)C1CCN(c2ccncc2)CC1 (stereo not drawn) [CC_H-280, 4-[[(2-Chlorophenyl)-carbamoyl]amino]-N-methyl-N-(1-pyridin-4-yl-piperidin-4-yl)-3,4-dihydro-2H-chromene-6-carboxylic acid amide] | 91%
13 | CN(C(=O)c1ccc2c(c1)C(NC(=O)Nc1cccc(Cl)c1)CCO2)C1CCN(c2ccncc2)CC1 (stereo not drawn) [CC_H-281, 4-[[(3-Chlorophenyl)-carbamoyl]amino]-N-methyl-N-(1-pyridin-4-yl-piperidin-4-yl)-3,4-dihydro-2H-chromene-6-carboxylic acid amide] | 99%
14 | CN(C(=O)c1ccc2c(c1)C(NC(=O)Nc1cccc(Cl)c1Cl)CCO2)C1CCN(c2ccncc2)CC1 (stereo not drawn) [CC_H-282, 4-[[(2,3-Dichloro-phenyl)-carbamoyl]amino]-N-methyl-N-(1-pyridin-4-yl-piperidin-4-yl)-3,4-dihydro-2H-chromene-6-carboxylic acid amide] | 102%
15 | CN(C(=O)c1ccc2c(c1)C(NC(=O)Nc1cc(Cl)ccc1Cl)CCO2)C1CCN(c2ccncc2)CC1 (stereo not drawn) [CC_H-283, 4-[[(2,5-Dichloro-phenyl)-carbamoyl]amino]-N-methyl-N-(1-pyridin-4-yl-piperidin-4-yl)-3,4-dihydro-2H-chromene-6-carboxylic acid amide] | 106%
16 | CN(C(=O)c1ccc2c(c1)C(NC(=O)Nc1cc(C(F)(F)F)ccc1Cl)CCO2)C1CCN(c2ccncc2)CC1 (stereo not drawn) [CC_H-285, 4-[[[2-Chloro-5-(trifluoromethyl)-phenyl]-carbamoyl]amino]-N-methyl-N-(1-pyridin-4-yl-piperidin-4-yl)-3,4-dihydro-2H-chromene-6-carboxylic acid amide] | 75%
17 | CN(C(=O)c1ccc2c(c1)C(NC(=O)Nc1ccc(Cl)cc1Cl)CCO2)C1CCN(c2ccncc2)CC1 (stereo not drawn) [CC_H-286, 4-[[(2,4-Dichlorophenyl)-carbamoyl]amino]-N-methyl-N-(1-pyridin-4-yl-piperidin-4-yl)-3,4-dihydro-2H-chromene-6-carboxylic acid amide] | 87%
18 | Cc1ccc(NC(=O)NC2CCOc3ccc(C(=O)N(C)C4CCN(c5ccncc5)CC4)cc32)cc1Cl (stereo not drawn) [CC_H-288, 4-[[(3-Chloro-4-methyl-phenyl)-carbamoyl]amino]-N-methyl-N-(1-pyridin-4-yl-piperidin-4-yl)-3,4-dihydro-2H-chromene-6-carboxylic acid amide] | 69%
19 | CN(C(=O)c1ccc2c(c1)C(NC(=O)Nc1ccc(F)c(Cl)c1)CCO2)C1CCN(c2ccncc2)CC1 (stereo not drawn) [CC_H-289, 4-[[(3-Chloro-4-fluoro-phenyl)-carbamoyl]amino]-N-methyl-N-(1-pyridin-4-yl-piperidin-4-yl)-3,4-dihydro-2H-chromene-6-carboxylic acid amide] | 77%
20 | CN(C(=O)NC1CCOc2ccc(C(=O)N(C)C3CCN(c4ccncc4)CC3)cc21)c1ccccc1Cl (stereo not drawn) [CC_H-292, 4-[[(2-Chlorophenyl)-methyl-carbamoyl]amino]-N-methyl-N-(1-pyridin-4-yl-piperidin-4-yl)-3,4-dihydro-2H-chromene-6-carboxylic acid amide] | 102%
21 | CC(C)CC(=O)NC1CCOc2ccc(C(=O)N(C)C3CCN(c4ccncc4)CC3)cc21 (stereo not drawn) [CC_H-293, N-Methyl-4-(3-methyl-butanoylamino)-N-(1-pyridin-4-yl-piperidin-4-yl)-3,4-dihydro-2H-chromene-6-carboxylic acid amide] | 109%
22 | Cc1cc(N2CCC(N(C)C(=O)c3ccc4c(c3)C(NC(=O)c3cc(F)ccc3Cl)CC4)CC2)cc(C)n1 (stereo not drawn) [CC_H-294, 3-[(2-Chloro-5-fluoro-benzoyl)amino]-N-[1-(2,6-dimethyl-pyridin-4-yl)-piperidin-4-yl]-N-methyl-2,3-dihydro-1H-indene-5-carboxylic acid amide] | 111%
23 | Cc1cc(N2CCC(N(C)C(=O)c3ccc4c(c3)C(NC(=O)c3c(F)ccc(C)c3Cl)CC4)CC2)cc(C)n1 (stereo not drawn) [CC_H-295, 3-[(2-Chloro-6-fluoro-3-methyl-benzoyl)amino]-N-[1-(2,6-dimethyl-pyridin-4-yl)-piperidin-4-yl]-N-methyl-2,3-dihydro-1H-indene-5-carboxylic acid amide] | 111%
24 | Cc1cc(N2CCC(N(C)C(=O)c3ccc4c(c3)C(NC(=O)c3cc(Cl)ccc3Cl)CC4)CC2)cc(C)n1 (stereo not drawn) [CC_H-296, 3-[(2,5-Dichloro-benzoyl)amino]-N-[1-(2,6-dimethyl-pyridin-4-yl)-piperidin-4-yl]-N-methyl-2,3-dihydro-1H-indene-5-carboxylic acid amide] | 112%
25 | Cc1cc(N2CCC(N(C)C(=O)c3ccc4c(c3)C(NC(=O)C3CCCCC3)CC4)CC2)cc(C)n1 (stereo not drawn) [CC_H-297, 3-(Cyclohexanecarbonylamino)-N-[1-(2,6-dimethyl-pyridin-4-yl)-piperidin-4-yl]-N-methyl-2,3-dihydro-1H-indene-5-carboxylic acid amide] | 110%
26 | Cc1cc(N2CCC(N(C)C(=O)c3ccc4c(c3)C(NC(=O)C3CC3)CC4)CC2)cc(C)n1 (stereo not drawn) [CC_H-298, 3-(Cyclopropanecarbonylamino)-N-[1-(2,6-dimethyl-pyridin-4-yl)-piperidin-4-yl]-N-methyl-2,3-dihydro-1H-indene-5-carboxylic acid amide] | 101%
27 | Cc1cc(N2CCC(N(C)C(=O)c3ccc4c(c3)C(NC(=O)CC(C)(C)C)CC4)CC2)cc(C)n1 (stereo not drawn) [CC_H-299, 3-(3,3-Dimethyl-butanoylamino)-N-[1-(2,6-dimethyl-pyridin-4-yl)-piperidin-4-yl]-N-methyl-2,3-dihydro-1H-indene-5-carboxylic acid amide] | 110%
